The values that follow are results of earlier work, collected in patent US10352920B2, “Supplements and monitoring systems for dosing of the supplements” (i-CalQ, LLC, priority 2012, dated 2019).

The subject of one data set is cortisol. As to conditions: ingestion of 1 gram for 7 days.
A further data set concerns cognitive function. To be noted: administration of 9 grams.
Data set [1] deals with athletes involved in cycling, weight training and endurance running. To be noted: sports nutrition studies.
For data set [2], the target named is inducible nitric oxide synthase (Homo sapiens, UniProt P35228). To be noted: in vitro.
A further data set has as its system lipoxygenase. As to conditions: in vitro.
The conditions of data set [3]: dietary curcumin.

Chain of inducible nitric oxide synthase (P35228 whole entry): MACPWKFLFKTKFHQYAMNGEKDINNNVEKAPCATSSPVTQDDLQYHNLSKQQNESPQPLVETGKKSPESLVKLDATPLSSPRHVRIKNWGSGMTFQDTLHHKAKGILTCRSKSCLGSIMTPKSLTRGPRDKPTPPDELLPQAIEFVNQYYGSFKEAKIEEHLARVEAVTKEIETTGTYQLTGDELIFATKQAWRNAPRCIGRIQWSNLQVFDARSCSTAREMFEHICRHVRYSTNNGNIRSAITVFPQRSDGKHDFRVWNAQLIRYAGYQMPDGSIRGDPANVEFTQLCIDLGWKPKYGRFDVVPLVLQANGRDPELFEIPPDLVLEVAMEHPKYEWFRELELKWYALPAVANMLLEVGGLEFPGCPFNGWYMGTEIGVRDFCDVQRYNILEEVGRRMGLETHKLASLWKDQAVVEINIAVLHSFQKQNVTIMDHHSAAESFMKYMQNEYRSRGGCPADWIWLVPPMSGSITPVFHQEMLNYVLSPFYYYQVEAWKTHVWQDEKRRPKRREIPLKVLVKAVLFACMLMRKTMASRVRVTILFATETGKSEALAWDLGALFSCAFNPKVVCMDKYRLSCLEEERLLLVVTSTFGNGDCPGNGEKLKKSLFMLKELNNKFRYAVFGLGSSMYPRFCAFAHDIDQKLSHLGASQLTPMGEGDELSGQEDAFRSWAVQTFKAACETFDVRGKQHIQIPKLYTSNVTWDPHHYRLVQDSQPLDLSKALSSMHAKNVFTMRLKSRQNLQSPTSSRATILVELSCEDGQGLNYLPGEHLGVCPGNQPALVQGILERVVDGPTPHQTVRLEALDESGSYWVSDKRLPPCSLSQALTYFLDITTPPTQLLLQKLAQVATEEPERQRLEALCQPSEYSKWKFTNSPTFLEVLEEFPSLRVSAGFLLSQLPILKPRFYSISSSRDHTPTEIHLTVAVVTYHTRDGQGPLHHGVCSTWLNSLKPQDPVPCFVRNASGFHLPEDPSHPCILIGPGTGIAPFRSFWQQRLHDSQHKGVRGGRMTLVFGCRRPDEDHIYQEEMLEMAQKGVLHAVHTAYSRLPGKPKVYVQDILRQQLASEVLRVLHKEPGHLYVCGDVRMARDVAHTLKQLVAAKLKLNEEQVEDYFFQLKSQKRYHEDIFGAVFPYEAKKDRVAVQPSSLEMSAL

For the compound `O=C1O[C@H]([C@@H](O)CO)C(O)=C1O` [vitamin C], the “cortisol rise in response to lipopolysaccharide administration” value in the data set on cortisol was “blunts the cortisol rise”.

Turning to `N[C@@H](Cc1ccc(O)cc1)C(=O)O` [tyrosine], in the data set on cognitive function, the “cognitive function following experimentally induced hypothermia” value was “improves cognitive function”.

For phosphotidylserine, in data set [1], the muscle soreness result is reported as “prevent muscle soreness”, the recovery result is on record as “speed up recovery” and the well-being result is listed as “improve well-being”.

In the case of `COc1cc(/C=C/C(=O)CC(=O)/C=C/c2ccc(O)c(OC)c2)ccc1O` [curcumin], the “activity of inducible nitric oxide synthase” value in data set [2] was “down-regulating the activity”. For the same compound, in the data set on lipoxygenase, the activity of lipoxygenase entry is given as “down-regulating the activity”. Also, the “bioavailability (levels in plasma and tissues)” value in data set [3] is “poor bioavailability”.
